# Literature values in publication PMC3159817 (Journal of chemical information and modeling, 2011).
# Assays:
# [1] = tested on: HIV-1 reverse transcriptase Y501 mutants
# [2] = tested on: RNase H active site of RT with DNA:RNA substrate bound
SMILES,effect of Y501 mutations on inhibition [1],competition with nucleic acid substrate [2]
"CC(C)(C)c1ccc(C(=O)NN=Cc2c(O)ccc3ccccc23)cc1 [BBNH, N-(4-tert-butylbenzoyl)-2-hydroxy-1-naphthaldehyde hydrazone]",mutations of Y501 result in resistance to inhibition,
CC(C)c1ccc(O)c(=O)c(O)c1 [β-thujaplicinol],,appears unable to compete with the intact nucleic acid substrates
